Reference: the supplement of paper PMC11451515

Test system: P12-Ichikawa
Experiment: cell viability relative to DMSO control; higher = less cytotoxic
Conditions: 48 h
Method in brief: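 Before seeding, each leukemia line was adapted for at least four passages in each medium. NOMO1 or SEM cells (500 cells/well) and P12-Ichikawa cells (1000 cells/well) went into 1536-well plates at 5 μl, then received library compounds in DMSO by pin dosing across 11 threefold concentrations, 47 μM to 0.79 nM. Readout was CellTiter-Glo One luminescence after 48 h at 37°C, and viability is given as a per-plate percentage of DMSO wells, with cell-free wells as background.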

[1] = HPLM + 10% dialyzed FBS, 0.000781 µM
[2] = HPLM + 10% dialyzed FBS, 0.00234 µM
[3] = HPLM + 10% dialyzed FBS, 0.00702 µM
[4] = HPLM + 10% dialyzed FBS, 0.0211 µM
[5] = HPLM + 10% dialyzed FBS, 0.0632 µM
[6] = HPLM + 10% dialyzed FBS, 0.19 µM
[7] = HPLM + 10% dialyzed FBS, 0.569 µM
[8] = HPLM + 10% dialyzed FBS, 1.71 µM
[9] = HPLM + 10% dialyzed FBS, 5.12 µM
[10] = HPLM + 10% dialyzed FBS, 15.4 µM
[11] = HPLM + 10% dialyzed FBS, 46.1 µM
[12] = RPMI 5 mM glucose + 10% FBS, 0.000781 µM
[13] = RPMI 5 mM glucose + 10% FBS, 0.00234 µM
[14] = RPMI 5 mM glucose + 10% FBS, 0.00702 µM
[15] = RPMI 5 mM glucose + 10% FBS, 0.0211 µM
[16] = RPMI 5 mM glucose + 10% FBS, 0.0632 µM
[17] = RPMI 5 mM glucose + 10% FBS, 0.19 µM
[18] = RPMI 5 mM glucose + 10% FBS, 0.569 µM
[19] = RPMI 5 mM glucose + 10% FBS, 1.71 µM
[20] = RPMI 5 mM glucose + 10% FBS, 5.12 µM
[21] = RPMI 5 mM glucose + 10% FBS, 15.4 µM
[22] = RPMI 5 mM glucose + 10% FBS, 46.1 µM
[23] = RPMI 5 mM glucose + 10% dialyzed FBS, 0.000781 µM
[24] = RPMI 5 mM glucose + 10% dialyzed FBS, 0.00234 µM
[25] = RPMI 5 mM glucose + 10% dialyzed FBS, 0.00702 µM
[26] = RPMI 5 mM glucose + 10% dialyzed FBS, 0.0211 µM
[27] = RPMI 5 mM glucose + 10% dialyzed FBS, 0.0632 µM
[28] = RPMI 5 mM glucose + 10% dialyzed FBS, 0.19 µM
[29] = RPMI 5 mM glucose + 10% dialyzed FBS, 0.569 µM
[30] = RPMI 5 mM glucose + 10% dialyzed FBS, 1.71 µM
[31] = RPMI 5 mM glucose + 10% dialyzed FBS, 5.12 µM
[32] = RPMI 5 mM glucose + 10% dialyzed FBS, 15.4 µM
[33] = RPMI 5 mM glucose + 10% dialyzed FBS, 46.1 µM

Row | Structure (SMILES) | cell viability [1] [%] | cell viability [2] [%] | cell viability [3] [%] | cell viability [4] [%] | cell viability [5] [%] | cell viability [6] [%] | cell viability [7] [%] | cell viability [8] [%] | cell viability [9] [%] | cell viability [10] [%] | cell viability [11] [%] | cell viability [12] [%] | cell viability [13] [%] | cell viability [14] [%] | cell viability [15] [%] | cell viability [16] [%] | cell viability [17] [%] | cell viability [18] [%] | cell viability [19] [%] | cell viability [20] [%] | cell viability [21] [%] | cell viability [22] [%] | cell viability [23] [%] | cell viability [24] [%] | cell viability [25] [%] | cell viability [26] [%] | cell viability [27] [%] | cell viability [28] [%] | cell viability [29] [%] | cell viability [30] [%] | cell viability [31] [%] | cell viability [32] [%] | cell viability [33] [%]
1 | CCCCN(CCCC)C(=O)CN1C[C@H](c2ccc3c(c2)OCO3)[C@@H](C(=O)O)[C@@H]1c1ccc(OC)cc1 | 112 | 111 | 113 | 70.2 | 116 | 114 | 107 | 114 | 106 | 104 | 88.4 | 107 | 122 | 115 | 61.9 | 112 | 122 | 123 | 118 | 36.1 | 105 | 99.9 |  |  |  |  |  |  |  |  |  |  | 
2 | CC[C@@]1(O)C[C@H](O[C@H]2C[C@H](N(C)C)[C@H](O[C@H]3C[C@H](O)[C@H](O[C@H]4CCC(=O)[C@H](C)O4)[C@H](C)O3)[C@H](C)O2)c2c(cc3c(c2O)C(=O)c2c(O)cccc2C3=O)[C@H]1C(=O)OC | 94.5 | 104 | 97 | 102 | 103 | 106 | 109 | 99.9 | 94.5 | 85.5 | 90.1 | 94.7 | 96.5 | 96.8 | 98.7 | 102 | 99 | 97.2 | 73.2 | 75.7 | 63.9 | 53.5 | 95.5 | 91.1 | 90.8 | 93.5 | 94.9 | 106 | 98.7 | 84.2 | 78 | 76.8 | 63.3
3 | CC(NCc1ccc2c(c1)[nH]/c(=N\C(=O)c1ccc(-c3cn[nH]c3)s1)n2CC(C)(C)O)C(C)(C)C (stereo unspecified) | 117 | 112 | 108 | 115 | 117 | 111 | 99.1 | 65 | 29.5 | 25.9 | 2.69 | 109 | 118 | 121 | 123 | 124 | 121 | 102 | 72.9 | 29.8 | 14.7 | 2.33 | 134 | 124 | 120 | 130 | 119 | 122 | 104 | 71 | 31.7 | 24.9 | 3.31
4 | O=C1N\2CCC3=C([NH]C4=C3C=CC=C4)C2=N/C5=CC=CC=C15 | 119 | 120 | 128 | 126 | 129 | 130 | 129 | 129 | 132 | 113 | 92.3 |  |  |  |  |  |  |  |  |  |  |  |  |  |  |  |  |  |  |  |  |  | 
5 | CCOC1=CC(=CC=C1C/2=N/[C@@](C)(C3=CC=C(Cl)C=C3)[C@](C)(N2C(=O)N4CCN(CC4)CC(=O)N5CCOCC5)C6=CC=C(Cl)C=C6)C(C)(C)C | 104 | 104 | 101 | 99.7 | 101 | 102 | 104 | 101 | 101 | 82.9 | 87.1 | 104 | 106 | 97.9 | 109 | 112 | 108 | 101 | 103 | 92.2 | 97.6 | 89.9 | 109 | 110 | 112 | 107 | 99.2 | 102 | 107 | 97.6 | 99.7 | 89.8 | 97.7
6 | NCC(=O)Nc1ccc(-n2nc(C(F)(F)F)cc2-c2ccc3c(ccc4ccccc43)c2)cc1 |  |  |  |  |  |  |  |  |  |  |  | 24.1 | 123 | 137 | 133 | 125 | 120 | 105 | 106 | 92.1 | 79.2 | 79 |  |  |  |  |  |  |  |  |  |  | 
7 | CC(=O)O[C@@]12CO[C@@H]1C[C@H](O)[C@]3(C)[C@@H]2[C@H](OC(=O)C4=CC=CC=C4)[C@]5(O)C[C@H](OC(=O)C(O)[C@@H](NC(=O)OC(C)(C)C)C6=CC=CC=C6)C(=C(/[C@@H](O)C3=O)C5(C)C)/C (stereo partly specified) | 28 | 36.3 | 37.7 | 38 | 42.2 | 40.1 | 24.8 | 19.8 | 8.29 | 4.99 | 3.29 | 33.6 | 32.1 | 35.6 | 35.2 | 37.2 | 34.8 | 25.5 | 25.5 | 11.8 | 6.81 | 3.21 | 42.5 | 46.4 | 48.1 | 57.5 | 49.4 | 51.4 | 40.2 | 31.5 | 15.5 | 5.67 | 2.26
8 | C#Cc1cccc(Nc2ncnc3cc(OC)c(OCCCCCCC(=O)NO)cc23)c1 | 126 | 118 | 121 | 124 | 105 | 69.2 | 29.8 | 8.83 | 6.65 | 6.4 | 2.39 |  |  |  |  |  |  |  |  |  |  |  |  |  |  |  |  |  |  |  |  |  | 
9 | NC(=O)Nc1cc(-c2ccc(CN3CCOCC3)cc2)sc1C(N)=O | 121 | 119 | 126 | 117 | 110 | 19.7 | 8.91 | 8.7 | 7.42 | 7.74 | 17.1 | 104 | 107 | 110 | 111 | 94.9 | 32.1 | 11.5 | 8.89 | 8.7 | 10 | 18.6 | 117 | 114 | 121 | 115 | 120 | 26.9 | 17.8 | 19.4 | 19 | 21.2 | 33.4
10 | CC(C)C[C@H](NC(=O)[C@H](Cc1ccccc1)NC(=O)c1cnccn1)B(O)O | 96.4 | 92.9 | 106 | 106 | 4.77 | 2.92 | 2.65 | 2.46 | 1.35 | 0.316 | -0.93 | 93.4 | 103 | 107 | 101 | 4.71 | 2.56 | 2.17 | 1.91 | 1.36 | 0.651 | -0.626 | 88.6 | 105 | 99 | 102 | 4.76 | 2.71 | 2.62 | 1.7 | 1.34 | 0.782 | -0.254
11 | C[C@@H]1C[C@H]2[C@@H]3CC\C4=C\C(=O)\C=C/[C@]4(C)[C@@]3(Cl)[C@@H](O)C[C@]2(C)[C@@]1(OC(=O)C5=CC=CO5)C(=O)CCl | 98.5 | 93.7 | 71.9 | 66.9 | 64.6 | 64.7 | 60.8 | 61.6 | 57.9 | 40.9 | 50 | 99.2 | 97.7 | 65.4 | 54.6 | 52.1 | 49.3 | 53.7 | 51.3 | 41.6 | 32.6 | 40.2 | 93 | 84.6 | 59.1 | 50.6 | 44.1 | 46.2 | 40 | 41.2 | 35.8 | 30.2 | 30.7
12 | N\C1=N\C2=C(N=C[N]2COC(CO)CO)C(=O)N1 | 107 | 108 | 109 | 113 | 115 | 115 | 119 | 120 | 119 | 116 | 5.18 | 104 | 102 | 112 | 119 | 121 | 110 | 124 | 124 | 117 | 107 | 3.39 | 101 | 98.3 | 108 | 118 | 106 | 116 | 113 | 109 | 112 | 109 | 4.18
13 | CCNc1cc(NC2CCC(O)CC2)nc(Nc2ccc3c(ccn3Cc3ccccc3)c2)n1 (stereo unspecified) | 112 | 117 | 117 | 126 | 127 | 128 | 126 | 128 | 124 | 120 | 109 |  |  |  |  |  |  |  |  |  |  |  |  |  |  |  |  |  |  |  |  |  | 
14 | Cc1cc(O)c2c(c1)C(=O)c1cc(O)cc(O)c1C2=O | 99.9 | 107 | 99.6 | 104 | 110 | 103 | 110 | 105 | 95.3 | 94.2 | 100 | 100 | 99.2 | 107 | 96.4 | 108 | 104 | 99.1 | 103 | 102 | 90.6 | 86.6 | 91.5 | 92.2 | 88.8 | 97.7 | 99.8 | 97.1 | 96.4 | 90.8 | 97 | 94 | 84.8
15 | OC(COC1=C2C(=O)\C=C(/OC2=CC=C1)C([O-])=O)COC3=C4C(=O)\C=C(/OC4=CC=C3)C([O-])=O | 84.8 | 80.9 | 87.4 | 79.2 | 90.7 | 77.2 | 88.4 | 90.1 | 92 | 86.7 | 90.4 | 98.9 | 94.9 | 97 | 94.2 | 103 | 89 | 87.3 | 89.3 | 86.9 | 83.2 | 89.5 | 75.3 | 78.4 | 84.8 | 82.1 | 83.1 | 76.7 | 81.4 | 87.8 | 73.4 | 81.3 | 80.3
